The values below come from paper PMC9805530 (European journal of medicinal chemistry, 2022).

Entries after “also recorded” stand apart in the source; their conditions may differ.

The target in series [1] is T1, Sirt6 (Homo sapiens, UniProt Q8N6T7). Nature of the series: Sirt6-dependent peptide deacetylation, Fluor de Lys. The note with it: for Activation Fold 100 μM: compound at 100 μM; for Activation Fold 100 μM / Activation Fold 30 μM: mean ± SD, at least two independent experiments; for effect on Sirt6 activity (time course): Fig. 3A; for Activation Fold 30 μM: compound at 30 μM.

Series [2] addresses T2, Sirt5 (Homo sapiens, UniProt Q9NXA8).
T2 sequence (Q9NXA8 37-310): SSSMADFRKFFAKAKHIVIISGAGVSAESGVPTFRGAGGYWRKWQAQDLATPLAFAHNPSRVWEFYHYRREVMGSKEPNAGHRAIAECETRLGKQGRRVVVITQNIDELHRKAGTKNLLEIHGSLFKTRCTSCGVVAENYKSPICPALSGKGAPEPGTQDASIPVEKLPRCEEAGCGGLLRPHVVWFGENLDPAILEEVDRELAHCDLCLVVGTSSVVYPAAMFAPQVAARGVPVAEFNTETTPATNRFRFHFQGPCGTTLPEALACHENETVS
Nature of the series: Fluorogenic Sirt5 Assay Kit. The format is biochemical. Conditions: 100 μM compounds, 37 °C 30 min.

Series [3] has as its target T1, Sirt6. The format is biochemical. The note with it: 100 μM, 30 °C, 60 minutes.
In series [4] the test system is R28 cells. The experiment in a line: MTT cell viability assay. The format is cell-based. The note with it: 100 μM, 24 hours. (Tetrazolium assays rely on reduction of a dye to a coloured formazan, in cell work by metabolically active cells.)
The subject of series [5] is H1299 cells. The experiment in a line: Acetylated H3K9 to total H3 in cancer cells. The format is cell-based. Conditions: 30 μM, 24 hours.
Series [6] concerns PLC/PRF/5 cells. Nature of the series: Acetylated H3K9 to total H3 in cancer cells. The series is classed as cell-based. Conditions: 30 μM, 24 hours.
Series [7] concerns H1299 cells. The experiment in a line: Colony formation assay. The format is cell-based. The note with it: 30 μM, one week.
Series [8] relates to PLC/PRF/5 cells. Nature of the series: Colony formation assay. The series is classed as cell-based. Conditions: 30 μM, one week.
Series [9] addresses T3, Sirt1 (Homo sapiens, UniProt Q96EB6).
T3 sequence (Q96EB6 1-747): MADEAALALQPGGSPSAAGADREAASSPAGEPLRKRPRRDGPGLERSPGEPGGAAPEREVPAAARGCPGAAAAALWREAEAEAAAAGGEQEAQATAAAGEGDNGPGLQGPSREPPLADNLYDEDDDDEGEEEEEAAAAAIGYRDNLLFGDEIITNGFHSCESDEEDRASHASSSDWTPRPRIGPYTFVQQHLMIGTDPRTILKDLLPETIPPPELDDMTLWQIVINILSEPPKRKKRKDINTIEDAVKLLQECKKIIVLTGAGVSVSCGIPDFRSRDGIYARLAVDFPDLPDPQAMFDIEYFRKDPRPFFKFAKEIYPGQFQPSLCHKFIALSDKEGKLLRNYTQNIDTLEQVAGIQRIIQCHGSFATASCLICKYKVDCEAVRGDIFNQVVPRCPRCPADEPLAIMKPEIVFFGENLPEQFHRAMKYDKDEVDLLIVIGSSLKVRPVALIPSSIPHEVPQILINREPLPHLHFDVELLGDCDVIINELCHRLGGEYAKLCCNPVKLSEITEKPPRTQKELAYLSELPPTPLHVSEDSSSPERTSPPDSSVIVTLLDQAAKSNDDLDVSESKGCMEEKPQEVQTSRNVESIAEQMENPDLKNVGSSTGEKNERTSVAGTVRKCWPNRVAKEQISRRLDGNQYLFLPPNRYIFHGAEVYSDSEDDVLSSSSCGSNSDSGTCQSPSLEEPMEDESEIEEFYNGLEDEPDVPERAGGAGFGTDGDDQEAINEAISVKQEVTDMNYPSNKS
The experiment in a line: Sirt1 deacetylation Activity Assay Kit. The note with it: time course, Fig. 3.

Series [10] concerns the target T4, Sirt2 (Homo sapiens, UniProt Q8IXJ6).
T4 sequence (Q8IXJ6 1-389): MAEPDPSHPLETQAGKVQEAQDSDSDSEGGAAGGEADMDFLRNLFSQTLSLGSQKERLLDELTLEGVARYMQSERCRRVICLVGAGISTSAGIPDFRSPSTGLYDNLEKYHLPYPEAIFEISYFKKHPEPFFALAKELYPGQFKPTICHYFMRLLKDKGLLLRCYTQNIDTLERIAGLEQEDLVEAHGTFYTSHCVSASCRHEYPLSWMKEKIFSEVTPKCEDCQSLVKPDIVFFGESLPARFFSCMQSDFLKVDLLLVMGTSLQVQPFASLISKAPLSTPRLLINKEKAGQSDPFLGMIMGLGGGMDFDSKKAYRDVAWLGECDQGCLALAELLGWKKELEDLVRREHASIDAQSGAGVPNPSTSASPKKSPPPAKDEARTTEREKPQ
Nature of the series: Sirt2 deacetylation Activity Assay Kit. The note with it: time course, Fig. 3.

Series [11] deals with BV2 cells. The experiment in a line: LPS-induced inflammatory gene mRNA expression. The note with it: 30 μM pretreatment 30 minutes, 100 ng/mL LPS 6 hours.

T1 sequence (Q8N6T7 whole entry): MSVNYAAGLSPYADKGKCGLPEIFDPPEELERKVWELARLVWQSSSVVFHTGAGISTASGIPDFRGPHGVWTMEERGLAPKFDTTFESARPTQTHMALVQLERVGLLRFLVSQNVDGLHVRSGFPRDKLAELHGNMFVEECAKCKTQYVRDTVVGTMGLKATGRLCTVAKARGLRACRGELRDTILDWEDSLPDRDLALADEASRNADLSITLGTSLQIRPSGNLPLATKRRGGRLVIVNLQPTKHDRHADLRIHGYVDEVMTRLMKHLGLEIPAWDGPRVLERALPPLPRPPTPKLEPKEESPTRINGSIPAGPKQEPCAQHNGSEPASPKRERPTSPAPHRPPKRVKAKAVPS

On to `FC1(F)CCN(c2ncccc2C2Nc3ccccc3-n3cccc32)CC1` (stereo not drawn) [Compound 25, 4-(2-(4,4-Difluoropiperidin-1-yl)pyridin-3-yl)-4,5-dihydropyrrolo[1,2-a]quinoxaline], for which the “Activation Fold 100 μM” value in series [1] is listed as ~ 2 fold.

Consider `O=S1(=O)CCN(c2ncccc2C2Nc3ccccc3-n3cccc32)CC1` (stereo not drawn) [Compound 26, 4-(3-(4,5-Dihydropyrrolo[1,2-a]quinoxalin-4-yl)pyridin-2-yl)thiomorpholine 1,1-dioxide], for which the “Activation Fold 100 μM” value in [1] was ~ 2 fold.

With `OC1CCN(c2ncccc2C2Nc3ccccc3-n3cccc32)CC1` (stereo not drawn) [Compound 27, 1-(3-(4,5-Dihydropyrrolo[1,2-a]quinoxalin-4-yl)pyridin-2-yl)piperidin-4-ol], the “Activation Fold 100 μM” value in [1] is ~ 2 fold.

As for `OCCN1CCN(c2ncccc2C2Nc3ccccc3-n3cccc32)CC1` (stereo not drawn) [Compound 35, 2-(4-(3-(4,5-Dihydropyrrolo[1,2-a]quinoxalin-4-yl)pyridin-2-yl)piperazin-1-yl)ethan-1-ol], the “effect on Sirt5 desuccinylation activity” value in [2] is on record as “no significant effects”. Moreover, the “acetylation of H3K9 in the nucleosome test” value in [3] is “significantly decreased”. For the same compound, the “toxicity on R28 cells” value in series [4] is “no obvious toxicity”. Also, the “Sirt6-dependent deacetylation of H3K9 (acetylated H3K9 to total H3)” value (from here on “Sirt6-dependent deacetylation of H3K9”) in series [5] is reported as “no obvious influence”. Further, in [6], the “Sirt6-dependent deacetylation of H3K9” value was “no obvious influence”. In addition, the “inhibition of colony formation” value in series [7] is recorded as “only a slight inhibitory effect”. The “inhibition of colony formation” value in [8] is on record as “only a slight inhibitory effect”. Besides, the “effect on Sirt1 deacetylation activity” value in [9] is recorded as “no significant effects”. Moreover, in series [10], the “effect on Sirt2 deacetylation activity” value was “no significant effects”. Also, in series [11], the ICAM-1 induction entry was “slight inhibition”, the “LPS-induced expression of IL-1β” value is on record as “strongly inhibited”, the “LPS-induced expression of IL-6” value is listed as “strongly inhibited” and the “LPS-induced expression of MCP-1” value is recorded as “strongly inhibited”. Further, in series [11], the “LPS-induced expression of TNFα” value was “strongly inhibited”. In [1], the “effect on Sirt6 activity (time course)” value is “specifically promoted”.

As to `COCCN1CCN(c2ncccc2C2Nc3ccccc3-n3cccc32)CC1` (stereo not drawn) [Compound 36, 4-(2-(4-(2-Methoxyethyl)piperazin-1-yl)pyridin-3-yl)-4,5-dihydropyrrolo[1,2-a]quinoxaline], the “effect on Sirt5 desuccinylation activity” value in [2] is “no significant effects”. The “acetylation of H3K9 in the nucleosome test” value in series [3] was “significantly decreased”. In addition, in series [4], the “toxicity on R28 cells” value is reported as “no obvious toxicity”. The “Sirt6-dependent deacetylation of H3K9” value in series [5] is “significantly activated Sirt6 to deacetylate H3K9”. Moreover, in [5] (Sirt6 siRNA), the “decrease of acetylated H3K9 when Sirt6 knockdown by siRNA” value was “abolished”. Also, the “Sirt6-dependent deacetylation of H3K9” value in [6] was “significantly activated Sirt6 to deacetylate H3K9”. Moreover, the “decrease of acetylated H3K9 when Sirt6 knockdown by siRNA” value in series [6] (Sirt6 siRNA) is “abolished”. In addition, the “inhibition of colony formation” value in series [7] was “about half”. Further, the “inhibition of colony formation” value in series [8] is “about half”. In series [9], the “effect on Sirt1 deacetylation activity” value was “no significant effects”. The “effect on Sirt2 deacetylation activity” value in [10] is recorded as “no significant effects”. Also, in series [11], the “LPS-induced expression of IL-1β” value is recorded as “strongly inhibited”, the “LPS-induced expression of IL-6” value was “strongly inhibited”, the “LPS-induced expression of MCP-1” value is given as “strongly inhibited” and the “LPS-induced expression of TNFα” value was “strongly inhibited”. For the same compound, the “effect on Sirt6 activity (time course)” value in [1] is “specifically promoted”.

Consider `OC1CN(CCN2CCN(c3ncccc3C3Nc4ccccc4-n4cccc43)CC2)C1` (stereo not drawn) [Compound 46, 1-(2-(4-(3-(4,5-Dihydropyrrolo[1,2-a]quinoxalin-4-yl)pyridin-2-yl)piperazin-1-yl)ethyl)azetidin-3-ol], for which the “effect on Sirt5 desuccinylation activity” value in [2] was “no significant effects”. In series [3], the “acetylation of H3K9 in the nucleosome test” value is given as “significantly decreased”. Also, the “effect on Sirt1 deacetylation activity” value in series [9] is reported as “no significant effects”. Moreover, the “effect on Sirt2 deacetylation activity” value in series [10] is “no significant effects”. In series [11], the “LPS-induced CXCL10 expression” value is recorded as “significantly repressed”, the “LPS-induced expression of IL-1β” value was “strongly inhibited; also recorded: almost reversed”, the “LPS-induced expression of IL-6” value is on record as “strongly inhibited; also recorded: almost reversed” and the “LPS-induced expression of MCP-1” value was “strongly inhibited; also recorded: almost reversed”. Further, in [11], the “LPS-induced expression of TNFα” value is “strongly inhibited”, the “LPS-induced iNOS expression” value was “significantly repressed” and the VCAM-1 induction result was “obviously inhibit”. Besides, the “effect on Sirt6 activity (time course)” value in series [1] is “specifically promoted”.

As to `c1ccc2c(c1)NC(c1cccnc1N1CCN(CCN3CCCC3)CC1)c1cccn1-2` (stereo not drawn) [Compound 47, 4-(2-(4-(2-(Pyrrolidin-1-yl)ethyl)piperazin-1-yl)pyridin-3-yl)-4,5-dihydropyrrolo[1,2-a]quinoxaline], in [2], the “effect on Sirt5 desuccinylation activity” value is on record as “no significant effects”. The “acetylation of H3K9 in the nucleosome test” value in series [3] was “no effect”. The “effect on Sirt1 deacetylation activity” value in series [9] is on record as “no significant effects”. Further, the “effect on Sirt2 deacetylation activity” value in series [10] was “no significant effects”. In addition, in [11], the ICAM-1 induction result is reported as “slight inhibition”, the “LPS-induced CXCL10 expression” value is “significantly repressed”, the “LPS-induced expression of IL-1β” value is reported as “strongly inhibited; also recorded: almost reversed” and the “LPS-induced expression of IL-6” value is on record as “strongly inhibited; also recorded: almost reversed”. In addition, in series [11], the “LPS-induced expression of MCP-1” value is listed as “strongly inhibited; also recorded: almost reversed”, the “LPS-induced expression of TNFα” value is “strongly inhibited”, the “LPS-induced iNOS expression” value is “significantly repressed” and the VCAM-1 induction result is “obviously inhibit”. In series [1], the “effect on Sirt6 activity (time course)” value was “specifically promoted”, the “Activation Fold 30 μM” value came out at 4.80 ± 0.19 fold and the “Activation Fold 100 μM” value is 5.38 ± 0.29 fold.

In the case of `c1ccc2c(c1)NC(c1cccnc1N1CCN(CCn3ccnc3)CC1)c1cccn1-2` (stereo not drawn) [Compound 50, 4-(2-(4-(2-(1H-Imidazol-1-yl)ethyl)piperazin-1-yl)pyridin-3-yl)-4,5-dihydropyrrolo[1,2-a]quinoxaline], in series [2], the “effect on Sirt5 desuccinylation activity” value is “no significant effects”. Further, the “acetylation of H3K9 in the nucleosome test” value in series [3] is “significantly decreased”. Further, in series [9], the “effect on Sirt1 deacetylation activity” value was “no significant effects”. Moreover, the “effect on Sirt2 deacetylation activity” value in [10] is recorded as “no significant effects”. In series [11], the ICAM-1 induction result is “slight inhibition”, the “LPS-induced CXCL10 expression” value was “significantly repressed”, the “LPS-induced expression of IL-1β” value was “strongly inhibited; also recorded: almost reversed” and the “LPS-induced expression of IL-6” value was “strongly inhibited; also recorded: almost reversed”. In series [11], the “LPS-induced expression of MCP-1” value is listed as “strongly inhibited; also recorded: almost reversed”, the “LPS-induced expression of TNFα” value is listed as “strongly inhibited” and the “LPS-induced iNOS expression” value is listed as “significantly repressed”. Further, in series [1], the “effect on Sirt6 activity (time course)” value is on record as “specifically promoted”, the “Activation Fold 30 μM” value is reported as 3.34 ± 0.19 fold and the “Activation Fold 100 μM” value is reported as 6.29 ± 0.02 fold.
